Data taken from patent publication US20260297080A1, “BICYCLIC COMPOUNDS AS CDK INHIBITORS” (BeOne Medicines I GmbH, priority 2022, published 2026).

Experiments:
CDK2/Cyclin E1 = CDK2/Cyclin E1 (Homo sapiens, UniProt P24941); test: CDK2/Cyclin E1 Biochemical Assay (TR-FRET), 0.060 mM ATP; conditions: 0.15 μM Rb (Ser780)-biotin substrate, pH7.0, 60 min preincubation, 120 min reaction, room temperature
In short: (§1)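 TR-FRET assay with 0.15 μM Rb (Ser780)-biotin substrate and 0-10 μM compound in 50 mM HEPES pH7.0, 50 mM MgCl2, 1 mM DTT. ATP was 0.060 mM for CDK2/Cyclin E1 and 0.015 mM for CDK1/Cyclin B1. Kinase was preincubated with compound 60 min, reacted 120 min at room temperature, and IC50 was fitted (four-parameter) from the 665/620 nm ratio.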

CDK1/Cyclin B1 = CDK1/Cyclin B1 (Homo sapiens, UniProt P06493); test: CDK1/Cyclin B1 Biochemical Assay (TR-FRET), 0.015 mM ATP; conditions: 0.15 μM Rb (Ser780)-biotin substrate, pH7.0, 60 min preincubation, 120 min reaction, room temperature
In short: as §1

CDK1/Cyclin B1, sequence (P06493 whole entry): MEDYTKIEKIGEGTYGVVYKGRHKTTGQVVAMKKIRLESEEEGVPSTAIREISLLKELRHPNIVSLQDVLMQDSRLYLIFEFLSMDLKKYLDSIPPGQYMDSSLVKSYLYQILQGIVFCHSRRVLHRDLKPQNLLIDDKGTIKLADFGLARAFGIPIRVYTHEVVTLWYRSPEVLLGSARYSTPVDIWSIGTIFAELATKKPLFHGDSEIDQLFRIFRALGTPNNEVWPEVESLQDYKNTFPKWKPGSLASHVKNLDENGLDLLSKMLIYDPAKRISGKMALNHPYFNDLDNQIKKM
CDK1/Cyclin B1, sequence (P14635 whole entry partner): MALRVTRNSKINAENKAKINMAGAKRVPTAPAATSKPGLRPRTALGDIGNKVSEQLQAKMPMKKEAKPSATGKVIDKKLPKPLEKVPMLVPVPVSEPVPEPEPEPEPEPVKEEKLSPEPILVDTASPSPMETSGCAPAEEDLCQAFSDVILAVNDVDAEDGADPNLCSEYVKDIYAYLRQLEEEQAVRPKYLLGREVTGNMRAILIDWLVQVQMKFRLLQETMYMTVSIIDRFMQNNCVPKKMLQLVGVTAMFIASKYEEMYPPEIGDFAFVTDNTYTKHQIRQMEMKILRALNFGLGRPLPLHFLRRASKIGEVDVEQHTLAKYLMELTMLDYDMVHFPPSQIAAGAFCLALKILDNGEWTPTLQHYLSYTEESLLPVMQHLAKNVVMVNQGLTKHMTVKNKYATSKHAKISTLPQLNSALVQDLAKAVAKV

SMILES	IC50 (CDK2/Cyclin E1)	IC50 (CDK1/Cyclin B1)
CCCNC(=O)O[C@H]1CC[C@@H](c2cc(Nc3cc(CO)c4c(c3F)CNS4(=O)=O)n[nH]2)C1 (relative stereo) [Example 366, cis-3-(3-((4-fluoro-7-(hydroxymethyl)-1,1-dioxido-2,3-dihydrobenzo[d]isothiazol-5-yl)amino)-1H-pyrazol-5-yl)cyclopentyl propylcarbamate]	> 10000 nM	> 10000 nM
CC1(NC(=O)O[C@H]2CC[C@@H](c3cc(Nc4ccc5c(c4F)CS(=O)(=O)N5C4CC4)n[nH]3)C2)CCOC1 (relative stereo) [Example 368, cis-3-(3-((1-cyclopropyl-4-fluoro-2,2-dioxido-1,3-dihydrobenzo[c]isothiazol-5-yl)amino)-1H-pyrazol-5-yl)cyclopentyl(3-methyltetrahydrofuran-3-yl)carbamate]	1.2 nM	95 nM
CC1(NC(=O)O[C@H]2CC[C@@H](c3cc(Nc4ccc5c(c4Cl)CNS5(=O)=O)n[nH]3)C2)CC1 (single isomer, unassigned) [Example 40a, cis-3-(3-((4-chloro-1,1-dioxido-2,3-dihydrobenzo[d]isothiazol-5-yl)amino)-1H-pyrazol-5-yl)cyclopentyl(1-methylcyclopropyl)carbamate]	5.4 nM	370 nM
COCCN1Cc2cc(Nc3cc([C@@H]4CC[C@H](OC(=O)NC(C)C)C4)[nH]n3)c(F)cc2S1(=O)=O (relative stereo) [Example 48, cis-3-(3-((6-fluoro-2-(2-methoxyethyl)-1,1-dioxido-2,3-dihydrobenzo[d]isothiazol-5-yl)amino-1H-pyrazol-5-yl)cyclopentyl isopropylcarbamate]	243 nM	> 10000 nM
CCCNC(=O)O[C@H]1CC[C@@H](c2cc(Nc3ccc4c(c3Cl)CNS4(=O)=O)n[nH]2)C1 (single isomer, unassigned) [Example 39b, cis-3-(3-((4-chloro-1,1-dioxido-2,3-dihydrobenzo[d]isothiazol-5-yl)amino)-1H-pyrazol-5-yl)cyclopentyl propylcarbamate]	26 nM	390 nM
CC1(NC(=O)O[C@H]2CC[C@@H](c3cc(Nc4ccc5c(c4F)CS(=O)(=O)N5)n[nH]3)C2)COC1 (relative stereo) [Example 374, cis-3-(3-((4-fluoro-2,2-dioxido-1,3-dihydrobenzo[c]isothiazol-5-yl)amino)-1H-pyrazol-5-yl)cyclopentyl(3-methyloxetan-3-yl)carbamate]	5.7 nM	118 nM
CN1c2ccc(Nc3cc([C@@H]4CC[C@H](OC(=O)NC(C)(C)C)C4)[nH]n3)cc2CS1(=O)=O [Example 391b]	0.9 nM	7.8 nM
[2H]C([2H])([2H])N1c2ccc(Nc3cc([C@@H]4CC[C@H](OC(=O)N[C@@H](C)CC)C4)[nH]n3)c(F)c2CS1(=O)=O (relative stereo) [Example 269, cis-3-(3-((4-fluoro-1-(methyl-d3)-2,2-dioxido-1,3-dihydrobenzo[c]isothiazol-5-yl)amino)-1H-pyrazol-5-yl)cyclopentyl((S)-sec-butyl)carbamate]	5.6 nM	61 nM
COCCN1c2ccc(Nc3cc([C@@H]4CC[C@H](OC(=O)NC(C)C)C4)[nH]n3)cc2CS1(=O)=O (relative stereo) [Example 204, cis-3-(3-((1-(2-methoxyethyl)-2,2-dioxido-1,3-dihydrobenzo[c]isothiazol-5-yl)amino)-1H-pyrazol-5-yl)cyclopentyl isopropylcarbamate]	1.8 nM	51 nM
COCCN1Cc2ccc(Nc3cc([C@@H]4CC[C@H](OC(=O)NC(C)C)C4)[nH]n3)c(F)c2S1(=O)=O (relative stereo) [Example 191, cis-3-(3-((7-fluoro-2-(2-methoxyethyl)-1,1-dioxido-2,3-dihydrobenzo[d]isothiazol-6-yl)amino)-1H-pyrazol-5-yl)cyclopentyl isopropylcarbamate]	9.3 nM	191 nM
CC(C)NC(=O)O[C@H]1CC[C@@H](c2cc(Nc3ccc4c(c3)C(C)S(=O)(=O)N4)n[nH]2)C1 (single isomer, unassigned) [Example 384d, cis-3-(3-((3-methyl-2,2-dioxido-1,3-dihydrobenzo[c]isothiazol-5-yl)amino)-1H-pyrazol-5-yl)cyclopentyl isopropylcarbamate]	1.8 nM	57 nM
CC(C)NC(=O)O[C@H]1CC[C@@H](c2cc(Nc3ccc4c(c3)CS(=O)(=O)N4CC3CN(C)C3)n[nH]2)C1 (relative stereo) [Example 213, cis-3-(3-((1-((1-methylazetidin-3-yl)methyl)-2,2-dioxido-1,3-dihydrobenzo[c]isothiazol-5-yl)amino)-1H-pyrazol-5-yl)cyclopentyl isopropylcarbamate]	2.7 nM	30 nM
CCCNC(=O)O[C@H]1CC[C@@H](c2cc(Nc3ccc4c(c3F)CS(=O)(=O)N4C3CC3)n[nH]2)C1 (relative stereo) [Example 276, cis-3-(3-((1-cyclopropyl-4-fluoro-2,2-dioxido-1,3-dihydrobenzo[c]isothiazol-5-yl)amino)-1H-pyrazol-5-yl)cyclopentyl propylcarbamate]	5 nM	111 nM
O=C(NCCC(F)(F)F)O[C@@H]1CC[C@H](c2cc(Nc3cc4c(cc3F)S(=O)(=O)NC4)n[nH]2)C1 (single isomer, unassigned) [Example 419a]	2 nM	298 nM
CC(C)NC(=O)O[C@H]1CC[C@@H](c2cc(Nc3cc(F)c4c(c3)CS(=O)(=O)N4C)n[nH]2)C1 (relative stereo) [Example 280, cis-3-(3-((7-fluoro-1-methyl-2,2-dioxido-1,3-dihydrobenzo[c]isothiazol-5-yl)amino)-1H-pyrazol-5-yl)cyclopentyl isopropylcarbamate]	10 nM	149 nM
COCC(C)(C)NC(=O)O[C@H]1CC[C@@H](c2cc(Nc3ccc4c(c3)CS(=O)(=O)N4C)n[nH]2)C1 (relative stereo) [Example 369, cis-3-(3-((1-methyl-2,2-dioxido-1,3-dihydrobenzo[c]isothiazol-5-yl)amino)-1H-pyrazol-5-yl)cyclopentyl(1-methoxy-2-methylpropan-2-yl)carbamate]	0.7 nM	13 nM
CN1c2ccc(Nc3cc([C@@H]4CC[C@H](OC(=O)NC(C)(C)CO)C4)[nH]n3)c(F)c2CS1(=O)=O (single isomer, unassigned) [Example 327a, cis-3-(3-((4-fluoro-1-methyl-2,2-dioxido-1,3-dihydrobenzo[c]isothiazol-5-yl)amino)-1H-pyrazol-5-yl)cyclopentyl(1-hydroxy-2-methylpropan-2-yl)carbamate]	1.5 nM	143 nM
CC(C)NC(=O)O[C@H]1CC[C@@H](c2cc(Nc3ccc4c(c3F)C(C)(C)NS4(=O)=O)n[nH]2)C1 (relative stereo) [Example 55, cis-3-(3-((4-fluoro-3,3-dimethyl-1,1-dioxido-2,3-dihydrobenzo[d]isothiazol-5-yl)amino)-1H-pyrazol-5-yl)cyclopentyl isopropylcarbamate]	71 nM	1890 nM
CC[C@H](C)NC(=O)O[C@H]1CC[C@@H](c2cc(Nc3ccc4c(c3F)CS(=O)(=O)N4CC(F)(F)F)n[nH]2)C1 (single isomer, unassigned) [Example 265a]	1.6 nM	41 nM
CC1(NC(=O)O[C@H]2CC[C@@H](c3cc(Nc4ccc5c(c4)NS(=O)(=O)C5)n[nH]3)C2)CC1 (relative stereo) [Example 307, cis-3-(3-((2,2-dioxido-1,3-dihydrobenzo[c]isothiazol-6-yl)amino)-1H-pyrazol-5-yl)cyclopentyl(1-methylcyclopropyl)carbamate]	2.5 nM	18 nM
Cc1cc(Nc2cc([C@@H]3CC[C@H](OC(=O)NC(C)C)C3)[nH]n2)cc2c1N(C)S(=O)(=O)C2 (relative stereo) [Example 245, cis-3-(3-((1,7-dimethyl-2,2-dioxido-1,3-dihydrobenzo[c]isothiazol-5-yl)amino)-1H-pyrazol-5-yl)cyclopentyl isopropylcarbamate]	44 nM	941 nM
[2H]C([2H])([2H])N1Cc2c(ccc(Nc3cc([C@@H]4CC[C@H](OC(=O)NC(C)C)C4)[nH]n3)c2F)S1(=O)=O (single isomer, unassigned) [Example 129a, cis-3-(3-((4-fluoro-2-(methyl-d3)-1,1-dioxido-2,3-dihydrobenzo[d]isothiazol-5-yl)amino)-1H-pyrazol-5-yl)cyclopentyl isopropylcarbamate]	4.7 nM	652 nM
CC(C)NC(=O)O[C@H]1CC[C@@H](c2cc(Nc3ccc4c(c3)C(=O)NS4(=O)=O)n[nH]2)C1 (relative stereo) [Example 17, cis-3-(3-((1,1-dioxido-3-oxo-2,3-dihydrobenzo[d]isothiazol-5-yl)amino)-1H-pyrazol-5-yl)cyclopentyl isopropylcarbamate]	11.8 nM	470 nM
CC(C)NC(=O)O[C@H]1CC[C@@H](c2cc(Nc3c(F)cc4c(c3F)CNS4(=O)=O)n[nH]2)C1 (relative stereo) [Example 30, cis-3-(3-((4,6-difluoro-1,1-dioxido-2,3-dihydrobenzo[d]isothiazol-5-yl)amino)-1H-pyrazol-5-yl)cyclopentyl isopropylcarbamate]	7.2 nM	544 nM
CN1c2ccc(Nc3cc([C@@H]4CC[C@H](OC(=O)NCCC(F)(F)F)C4)[nH]n3)cc2CS1(=O)=O (relative stereo) [Example 230, cis-3-(3-((1-methyl-2,2-dioxido-1,3-dihydrobenzo[c]isothiazol-5-yl)amino)-1H-pyrazol-5-yl)cyclopentyl(3,3,3-trifluoropropyl)carbamate]	9.8 nM	78 nM
